Measured values: US7816511B2, “Remedies for heart failure” (Asubio Pharma Co., Ltd., priority 2000, dated 2010)

What was measured:
[1] = tested on: Dahl-S rats; assay: Survival of Dahl-S heart failure model rats after antisense transfection into the heart; type: in vivo, rat; settings: 30 weeks post transfection, Dahl-S rats on 8% salt diet
Procedure: HVJ-liposomes were prepared as described in Example 6.2 by adding 50 μl of HMG-1,-2 mixture (1 mg/ml, Wako Pure Chemical Industries) to 1.4 mg of a solution of the antisense nucleotides selected in Example 7 dissolved in BSS buffer. Sense nucleotides were also prepared in the same manner.
The HVJ-liposome/DNA solution was injected into the left ventricle of the heart (apical and lateral sites) of 13-weeks old Dahl-S rats (DIS/Eis, Eisai, male) raised on an 8% salt diet from the age of 8 weeks in an amount of 75 μl each at 4 sites (a total volume of 300 μl) using a 30-gauge needle (antisense group: 13 rats, sense group: 13 rats).

[2] = tested on: Myc-His-rOSF-2 fused protein; assay: Selection of antisense nucleotide sequences: ELISA of Myc-His-rOSF-2 fused protein in transfected COS-1 cells; type: cell-based, rat
Text: Five antisense nucleotide sequences shown as SEQ ID NOs: 12-16 were designed by selecting regions containing an initiation codon AUG but not containing three continuous guanines (triplet G) and incapable of forming a hairpin structure or self-annealing and synthesized by an outer contractor. All the antisense nucleotide sequences are phosphorothioate type.
The Myc-His-rOSF-2 fused protein expression vector pcDNA4/Myc-His/rOSF-2 described in Example 5 was introduced into COS-1 cells, and the antisense nucleotide sequences prepared in 1 above were introduced to screen antisense nucleotide sequences inhibiting the expression of Myc-His-rOSF 2 fused protein. The expression level of Myc-His-rOSF-2 fused protein was assayed by ELISA (Enzyme-Linked Immunosorbent Assay) using a Myc-specific monoclonal antibody (Invitrogen). Specifically, COS-1 cells were plated on a 96-well plate at a density of 2×10^4 cells/well. […]
The culture supernatant was immobilized to an EIA/RIA plate (Costar) by incubating 50 μl thereof at 37° C. for 1-2 hours, and washed twice with 200 μl of Dulbecco's phosphate-buffered saline containing 0.1% Tween (PBST). […] After incubation with 50 μl of TMB (3,3′,5,5′-tetramethylbenzidine) reagent (KPL) at room temperature for 30 minutes, the reaction was stopped by adding 50 μl of 0.1 N sulfuric acid and the absorbance at 450 nm was measured with a microplate reader. […]

[3] = tested on: Sprague-Dawley rats; assay: Echocardiography 3 weeks after co-transfection of rOSF-2 plasmid and antisense/sense/scramble nucleotides into the rat heart; type: in vivo; settings: 3 weeks post transfection; for EDV: end-diastolic volume / ESV: end-systolic volume / FS: fractional shortening of the inner diameter of the left ventricle / IVPWD / IVSTD: thickness of the end-diastolic interventricular septum / LVIDD: inner diameter of the end-diastolic left ventricle / LVIDS: inner diameter of the end-systolic left ventricle / LVPWS: thickness of the posterior wall of the end-systolic left ventricle / TVSTS: echocardiography, nucleotides co-injected with rOSF-2 plasmid
Procedure: HVJ-liposomes were prepared as described in Example 6 by adding 50 μl of HMG-1,-2 mixture (1 mg/ml, Wako Pure Chemical Industries) to 200 μg of the plasmid solution prepared in Example 6.1 and 1.4 mg of the antisense nucleotide solution selected in Example 7. Sense and scramble nucleotide sequences were also prepared in the same manner.
The HVJ-liposome/DNA solution was injected into the left ventricle of the heart (apical and lateral sites) of 13-weeks old Sprague-Dawley rats (male) in an amount of 100 μl each at 3 sites (a total volume of 300 μl) using a 30-gauge needle (rOSF-2/antisense group, rOSF-2/sense group and rOSF-2/scramble group). Similarly, pcDNA4/rOSF-2 was injected as a positive control group and pcDNA4/His-Myc vector was injected as a negative control group.
After anesthesia with ketamine (50 mg/ml) and xylazine (10 mg/ml) at 3 weeks post transfection, echocardiography was performed using Core Vision Pro SSA 350A (probe: 7 MHz, Toshiba).

[4] = tested on: OSF-2 promoter; assay: Reporter assay using COS-1 cells with human OSF-2 reporter plasmid pGL3-hOSFgE (luciferase); type: cell-based; settings: 24 hours after compound addition, pGL3-control (SV40 promoter) as control
Text: A region extending from about 2 kb upstream of the initiation codon to immediately before the initiation codon was amplified by PCR using human OSF-2 gene #2 obtained in Example 10-1 as a template and primers (12) 5′-[…]-3′ (SEQ ID NO: 25) and (13) 5′-[…]-3′ (SEQ ID NO: 26). Primer (13) was designed to insert a restriction enzyme XhoI recognition site into the 5′ end, and this amplified fragment was digested with restriction enzymes SpeI and XhoI to give a fragment of about 2 kb, which was then ligated to a vector fragment of pGL3-enhancer (Promega) digested with restriction enzymes NheI and XhoI located upstream of the luciferase gene using a ligation kit (TAKARA SHUZO CO., LTD.) to give pGL3-hOSFgE. The nucleotide sequence of the insert was determined according to the method of Example 1-5 to confirm that it was identical with the nucleotide sequence determined in Example 10-1.
COS-1 cells were plated on a 96-well plate at a density of 3×10^4 cells/well and the plate was incubated at 37° C. for 16-24 hours and then transiently transfected with OSF-2 reporter plasmid pGL3-hOSFgE shown in Example 10 using LipofectAMINE 2000 reagent (GIBCO), and after incubation for 24 hours at 37° C., the medium was replaced. […] Luciferase activity was assayed according to the protocol of a luciferase assay system (Promega) and detected with 1420 multilabel counter (Wallac). […]

[5] = tested on: OSF-2 mRNA; assay: Expression analysis of OSF-2 mRNA using MC3T3-E1 cells (real-time PCR); type: cell-based, murine; settings: 30 μM, 24 hours

In the case of “SEQ ID NO: 12: phosphorothioate antisense nucleotide sequence containing the initiation codon region of rat OSF-2; the one selected in Example 7 (AGGAACCATCTTCAGCCCTG; all phosphorothioate, sugars by position and methylation of C not given here)”, the survival rate [1] is reported as 100%, the “inhibitory activity against OSF-2 protein production” value ([2]; final concentration 10 nM, FIG. 3) is reported as “stronger inhibitory activity against OSF-2 protein production than the sense and scramble nucleotide sequences” and the “inhibitory activity against OSF-2 protein production” value ([2]; final concentration 100 nM, 3 days, FIG. 2) is reported as “inhibited the expression the most strongly”. The “cardiac dilatation (LVIDD, LVIDS vs. positive control, sense and scramble groups)” value [3] was “inhibited cardiac dilatation”, the “EDV: end-diastolic volume” value [3] was 210.0 ± 6.8 µL and the “ESV: end-systolic volume” value [3] was 43.3 ± 5.1 µL. For the same compound, the “FS: fractional shortening of the inner diameter of the left ventricle” value (shortened to “FS: fractional shortening”) [3] was 49.5 ± 1.7%, the IVPWD [3] was 2.20 ± 0.13 mm and the “IVSTD: thickness of the end-diastolic interventricular septum” value (shortened to “IVSTD: thickness”) [3] was 1.68 ± 0.12 mm. For the same compound, the “LVIDD: inner diameter of the end-diastolic left ventricle” value (“LVIDD: inner diameter” below) [3] was 6.42 ± 0.09 mm, the “LVIDS: inner diameter of the end-systolic left ventricle” value (“LVIDS: inner diameter” for short) [3] was 3.25 ± 0.15 mm and the “LVPWS: thickness of the posterior wall of the end-systolic left ventricle” value (“LVPWS: thickness” below) [3] was 2.80 ± 0.17 mm. The TVSTS [3] was 3.07 ± 0.16 mm.

With “sense: sense nucleotide sequence that is a sense strand corresponding to SEQ ID NO: 12 (CAGGGCTGAAGATGGTTCCT; listed as DNA, chemistry not given here)” the survival rate [1] was 61.5%, the “EDV: end-diastolic volume” value [3] was 339.2 ± 17.9 µL and the “ESV: end-systolic volume” value [3] was 82.4 ± 10.2 µL. For the same compound, the “FS: fractional shortening” value [3] was 46.7 ± 1.6%, the IVPWD [3] was 1.46 ± 0.11 mm and the “IVSTD: thickness” value [3] was 1.26 ± 0.07 mm. The “LVIDD: inner diameter” value [3] was 7.93 ± 0.18 mm, the “LVIDS: inner diameter” value [3] was 4.24 ± 0.22 mm and the “LVPWS: thickness” value [3] was 2.30 ± 0.15 mm. For the same compound, the TVSTS [3] was 2.50 ± 0.07 mm.

With “scramble: scramble nucleotide sequence with the 5′, 3′ direction reversed to SEQ ID NO: 12 (GTCCCGACTTCTACCAAGGA; listed as DNA, chemistry not given here)” the “EDV: end-diastolic volume” value [3] was 307.6 ± 10.4 µL, the “ESV: end-systolic volume” value [3] was 73.4 ± 7.5 µL and the “FS: fractional shortening” value [3] was 46.7 ± 1.6%. For the same compound, the IVPWD [3] was 1.68 ± 0.07 mm, the “IVSTD: thickness” value [3] was 1.26 ± 0.12 mm and the “LVIDD: inner diameter” value [3] was 7.60 ± 11 mm. For the same compound, the “LVIDS: inner diameter” value [3] was 4.06 ± 0.18 mm, the “LVPWS: thickness” value [3] was 2.66 ± 0.07 mm and the TVSTS [3] was 2.60 ± 0.15 mm.

In the case of `Nc1nc(Cl)nc2c1ncn2[C@@H]1O[C@H](COP(=O)([O-])OP(=O)([O-])OP(=O)([O-])[O-])[C@@H](O)[C@H]1O.[Na+].[Na+].[Na+].[Na+]` [2-chloroadenosine 5′-triphosphate tetrasodium], the luciferase activity [4] is reported as “inhibit luciferase activity specifically to OSF-2 promoter” and the “expression of OSF-2 mRNA (standardized by GAPDH mRNA)” value [5] is reported as “inhibited the expression of OSF-2 mRNA”.

In the case of `Cc1ccccc1CNc1ncnc2c1ncn2[C@@H]1O[C@H](CO)[C@@H](O)[C@H]1O` [Metrifudil, N-[(2-methylphenyl)methyl]-adenosine], the luciferase activity [4] is reported as “inhibit luciferase activity specifically to OSF-2 promoter” and the “expression of OSF-2 mRNA (standardized by GAPDH mRNA)” value [5] is reported as “inhibited the expression of OSF-2 mRNA”.
